We go through 69 molecules from US9676780B2, “Piperazine-substituted [1,2,4]triazolo[1,5-C]quinazolin-5-amine compounds with A2A antagonist properties” (MERCK SHARP & DOHME CORP., priority 2012, dated 2017).

Each structure is given as a SMILES string.

The experiment addresses T1, human A2a receptor (Homo sapiens, UniProt P29274).
T1 construct: purchased Perkin-Elmer RBHA2AM400UA; host or cells: HEK293
In words: A2a receptor competition binding assay (Scintillation Proximity, tritiated radioligand). To be noted: membranes from HEK293 cells expressing the human A2a receptor; 0.5 nM tritiated ligand; SPA beads; one hour at room temperature; read-out: A2a EC50. On the procedure:
Binding affinities of compounds of the invention for the human A2a receptor were determined in a competition binding assay using Scintillation Proximity technology. […] The beads were then allowed to settle to the bottom of the wells for 1 hr, after which the membrane-associated radioactivity was determined by scintillation counting in a TopCount microplate reader. Ki values were determined using the Cheng-Prusoff equation.
• HEK293 cells expressing the human, rat, dog or monkey adenosine 2a receptor (Purchased from Perkin-Elmer # RBHA2AM400UA). • The Tritiated compound was prepared in-house by MRL Radiochemistry according to published methods. • Wheatgerm agglutinin-coated yttrium silicate SPA beads (GE Healthcare #RPNQ0023). […] This is a 2.5× solution. The final concentration in the assay is 0.5 nM. Calculate the concentration by counting two 5 ul aliquots. Membrane Preparation • Use 0.25 ug of membrane/well. Dilute membranes to 9.7 ug/ml in assay buffer. Treat with 20 ug/ml adenosine deaminase (ADA) for 15 minutes at room temperature to degrade endogenous adenosine. Membrane-Bead Mixture • Use 100 ug/well wheatgerm agglutinin-coated yttrium silicate SPA beads. • Mix ADA-treated membranes and SPA beads together for 30 min prior to assay. […] Incubate for one hour at room temperature with agitation. • Include total binding (assay buffer+1% DMSO) and non-specific binding (CGS15943, 1 uM) wells. Counting • Allow the beads to settle for one hour. • Count in TopCount. Calculations • A curve fitting program (i.e., Prism, Activity Base, Chemcart) is used to determine the EC50.
The Ki value is calculated using the Cheng-Prusoff equation. Ki=EC50/(1+(radioligand concentration/Kd))

T1 sequence (P29274 whole entry): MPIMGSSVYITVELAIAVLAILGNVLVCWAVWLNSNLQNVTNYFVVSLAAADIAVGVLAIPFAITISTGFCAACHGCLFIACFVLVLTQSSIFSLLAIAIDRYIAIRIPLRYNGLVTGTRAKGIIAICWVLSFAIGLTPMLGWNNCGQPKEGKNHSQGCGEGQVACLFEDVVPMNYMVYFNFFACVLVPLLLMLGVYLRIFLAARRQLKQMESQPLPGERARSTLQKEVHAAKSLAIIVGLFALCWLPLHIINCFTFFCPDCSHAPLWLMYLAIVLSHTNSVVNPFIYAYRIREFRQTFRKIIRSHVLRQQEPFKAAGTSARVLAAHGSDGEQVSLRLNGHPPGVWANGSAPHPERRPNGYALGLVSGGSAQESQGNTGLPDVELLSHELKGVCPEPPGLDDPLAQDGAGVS

Regarding `COc1cccc2c1nc(N)n1nc(CN3CCN(C)CC3c3ccccc3)nc21` (stereo not drawn) [Ex-3], the EC50 amounted to 190 nM. In the case of `COc1cccc2c1nc(N)n1nc(CN3CC(C)N(c4ccccc4)CC3C)nc21` (stereo not drawn) [Ex-8] it was 21.2 nM. The result for `COc1cc(F)cc2c1nc(N)n1nc(CN3CCN(c4ccc(F)cc4)CC3C)nc21` (stereo not drawn) [Ex-11] reads 7.68 nM; that for `CCn1ccnc1CN1CCN(Cc2nc3c4cccc(OC)c4nc(N)n3n2)C(C)C1` (stereo not drawn) [Ex-12], 88 nM; that for `COc1cccc2c1nc(N)n1nc(CN3CCN(Cc4nc5ccncc5n4C)CC3C)nc21` (stereo not drawn) [Ex-13], 87.1 nM.

As to `CCn1cncc1CN1CCN(Cc2nc3c4cccc(OC)c4nc(N)n3n2)C(C)C1` (stereo not drawn) [Ex-14], the EC50 came to 52.8 nM.

On to `COc1cccc2c1nc(N)n1nc(CN3CCN(Cc4c(C)nc5scnn45)CC3C)nc21` (stereo not drawn) [Ex-15], for which the EC50 came out at 8.1 nM. As to `COc1cccc2c1nc(N)n1nc(CN3CCN(Cc4ncco4)CC3C)nc21` (stereo not drawn) [Ex-16], the EC50 came out at 36.5 nM. On to `COc1cccc2c1nc(N)n1nc(CN3CCN(Cc4nccs4)CC3C)nc21` (stereo not drawn) [Ex-17], for which the EC50 was determined as 26.7 nM. For `COc1cccc2c1nc(N)n1nc(CN3CCN(Cc4cccc(C)n4)CC3C)nc21` (stereo not drawn) [Ex-18], the EC50 is 26.9 nM.

Consider `COc1cccc2c1nc(N)n1nc(CN3CCN(Cc4ncccc4F)CC3C)nc21` (stereo not drawn) [Ex-19], for which the EC50 is 29.6 nM. With `COc1cc(CN2CCN(Cc3nc4c5cccc(OC)c5nc(N)n4n3)C(C)C2)cc(OC)c1` (stereo not drawn) [Ex-20], the EC50 worked out at 51.7 nM.

Regarding `COc1cccc2c1nc(N)n1nc(CN3CCN(Cc4ccc(F)cc4F)CC3C)nc21` (stereo not drawn) [Ex-21], the EC50 stood at 20.3 nM. As for `COc1cccc2c1nc(N)n1nc(CN3CCN(Cc4cccc(Oc5ccccc5)c4)CC3C)nc21` (stereo not drawn) [Ex-22], the EC50 came to 10 nM.

As for `COc1cccc2c1nc(N)n1nc(CN3CCN(Cc4ccc(F)c(F)c4)CC3C)nc21` (stereo not drawn) [Ex-23], the EC50 was 17.7 nM. As for `COc1cccc2c1nc(N)n1nc(CN3CCN(Cc4c(F)cccc4F)CC3C)nc21` (stereo not drawn) [Ex-24], the EC50 was 14.4 nM. For the molecule `COc1ccc(CN2CCN(Cc3nc4c5cccc(OC)c5nc(N)n4n3)C(C)C2)cc1F` (stereo not drawn) [Ex-25], the EC50 stood at 34.5 nM.

On to `COc1cccc2c1nc(N)n1nc(CN3CCN(Cc4cc(F)cc(F)c4)CC3C)nc21` (stereo not drawn) [Ex-26], for which the EC50 is 21.8 nM. In the case of `COc1cccc2c1nc(N)n1nc(CN3CCN(Cc4cccc(Cl)c4F)CC3C)nc21` (stereo not drawn) [Ex-27], the EC50 was 6.8 nM. For the molecule `COc1cccc2c1nc(N)n1nc(CN3CCN(Cc4ccc(F)c(C)c4)CC3C)nc21` (stereo not drawn) [Ex-28], the EC50 came to 15.6 nM.

Regarding `COc1cccc2c1nc(N)n1nc(CN3CCN(Cc4ccc(F)c(F)c4F)CC3C)nc21` (stereo not drawn) [Ex-29], the EC50 came out at 18.6 nM.

Regarding `COc1cccc2c1nc(N)n1nc(CN3CCN(Cc4cc(F)c(F)cc4F)CC3C)nc21` (stereo not drawn) [Ex-30], the EC50 is 9.2 nM.

On to `COc1cccc2c1nc(N)n1nc(CN3CCN(Cc4ccc(N5CCCC5)cc4)CC3C)nc21` (stereo not drawn) [Ex-31], for which the EC50 was 49.1 nM. The result for `COc1cccc2c1nc(N)n1nc(CN3CCN(Cc4ccc(N(C)C)cc4)CC3C)nc21` (stereo not drawn) [Ex-32] reads 78.3 nM. For the molecule `COc1cccc2c1nc(N)n1nc(CN3CCN(Cc4ccc(N5CCCC5=O)cc4)CC3C)nc21` (stereo not drawn) [Ex-33], the EC50 was 35.9 nM.

In the case of `COc1cccc2c1nc(N)n1nc(CN3CCN(c4ccc(Cl)cc4)C[C@@H]3C)nc21` [Ex-34], the EC50 was found to be 18.5 nM.

As to `COc1cccc2c1nc(N)n1nc(CN3CCN(c4ccc(Cl)cc4)C[C@H]3C)nc21` [Ex-35], the EC50 came out at 3.7 nM. Consider `COc1cccc2c1nc(N)n1nc(CN3CCN(Cc4cc(C)ccc4C)CC3C)nc21` (stereo not drawn) [Ex-36], for which the EC50 stood at 18.1 nM. Regarding `COc1cc(F)cc2c1nc(N)n1nc(CN3CCN(c4ccc(F)cc4)CC3C)nc21` (stereo not drawn) [Ex-37], the EC50 is 48.9 nM. As to `COc1cccc2c1nc(N)n1nc(CN3CCN(c4ccc(C(F)(F)F)cn4)CC3C)nc21` (stereo not drawn) [Ex-40], the EC50 turned out to be 22.6 nM. For `COc1cc(F)cc2c1nc(N)n1nc(CN3CCN(c4ccc(F)cn4)CC3C)nc21` (stereo not drawn) [Ex-41], the EC50 amounted to 18.1 nM. The result for `COc1cc(F)cc2c1nc(N)n1nc(CN3CCN(c4ccc(C(F)(F)F)cn4)CC3C)nc21` (stereo not drawn) [Ex-42] reads 28.3 nM; that for `COc1cccc2c1nc(N)n1nc(CN3CCN(c4ccc(F)cc4)C[C@H]3C3CC3)nc21` [Ex-43], 2.11 nM; that for `COc1cccc2c1nc(N)n1nc(CN3CCN(c4ccc(F)cc4)C[C@H]3C(C)C)nc21` [Ex-44], 3.6 nM. Consider `CC[C@@H]1CN(c2ccc(F)cc2)CCN1Cc1nc2c3cccc(OC)c3nc(N)n2n1` [Ex-45], for which the EC50 stood at 5.7 nM. In the case of `CCC1CN(C(=O)c2ccc(F)cc2)CC(C)N1Cc1nc2c3cccc(OC)c3nc(N)n2n1` (stereo not drawn) [Ex-46], the EC50 was found to be 50.2 nM. In the case of `COc1cccc2c1nc(N)n1nc(CN3CCN(c4ccccc4C(F)(F)F)CC3C)nc21` (stereo not drawn) [Ex-47] it was 59.2 nM; in that of `COc1cccc2c1nc(N)n1nc(CN3CCN(c4ccc(C(F)(F)F)cc4)CC3C)nc21` (stereo not drawn) [Ex-48], 18.2 nM. As for `COc1cccc2c1nc(N)n1nc(C(C)N3CCN(c4ccc(F)cc4)CC3C)nc21` (stereo not drawn) [Ex-49], the half-maximal effective concentration (EC50) was determined as 4.9 nM. For the molecule `COc1cccc2c1nc(N)n1nc(C(C)N3CCN(c4ccc(F)cc4)C[C@H]3C)nc21` (stereo partly drawn) [Ex-50, 2-{1-[(2R)-4-(4-fluorophenyl)-2-methylpiperazin-1-yl]ethyl}-7-methoxy[1,2,4]triazolo[1,5-c]quinazolin-5-amine], the EC50 came out at 139 nM. As for `COc1cccc2c1nc(N)n1nc(CN3CCN(c4nccs4)CC3C)nc21` (stereo not drawn) [Ex-51], the EC50 came to 73.8 nM. Regarding `COc1cccc2c1nc(N)n1nc(CN3CCN(c4noc(C)n4)CC3C)nc21` (stereo not drawn) [Ex-52], the 50% effective concentration (EC50) is 48.5 nM. Consider `COc1cccc2c1nc(N)n1nc(CN3CCN(c4noc(C5CC5)n4)CC3C)nc21` (stereo not drawn) [Ex-53], for which the EC50 turned out to be 15.9 nM. In the case of `COc1cccc2c1nc(N)n1nc(CN3CCN(c4nnn[nH]4)CC3C)nc21` (stereo not drawn) [Ex-54] it was 106 nM; in that of `COc1cccc2c1nc(N)n1nc(CN3CCN(c4cccc(C(F)(F)F)c4)C[C@H]3C)nc21` [Ex-55], 5.2 nM.

Take `COc1cccc2c1nc(N)n1nc(CN3CCN(c4ccccc4Cl)CC3C)nc21` (stereo not drawn) [Ex-58]: the EC50 was determined as 12.4 nM. In the case of `COc1cccc2c1nc(N)n1nc(CN3CCN(c4ccccc4C#N)CC3C)nc21` (stereo not drawn) [Ex-59], the EC50 is 30.9 nM. Regarding `COc1cccc2c1nc(N)n1nc(CN3CCN(c4cccc(C#N)c4)CC3C)nc21` (stereo not drawn) [Ex-60], the EC50 came to 18.8 nM. The result for `COc1cccc2c1nc(N)n1nc(CN3CCN(c4ccc(C#N)cc4)CC3C)nc21` (stereo not drawn) [Ex-61] reads 11.4 nM; that for `COc1cccc2c1nc(N)n1nc(CN3CCN(c4ccc5ncccc5c4)CC3C)nc21` (stereo not drawn) [Ex-63], 1.44 nM. With `COc1cccc2c1nc(N)n1nc(CN3CCN(c4ccccc4C)CC3C)nc21` (stereo not drawn) [Ex-64], the EC50 was 13.1 nM. In the case of `COc1cccc2c1nc(N)n1nc(CN3CCN(c4cccc(C)c4)CC3C)nc21` (stereo not drawn) [Ex-65] it was 7 nM; in that of `COc1cccc2c1nc(N)n1nc(CN3CCN(c4ccc(C)cc4)CC3C)nc21` (stereo not drawn) [Ex-66], 3 nM; in that of `COc1cccc2c1nc(N)n1nc(CN3CCN(c4cccc5ccccc45)CC3C)nc21` (stereo not drawn) [Ex-71], 11.5 nM. As to `COc1cccc2c1nc(N)n1nc(CN3CCN(c4ccc5ccccc5c4)CC3C)nc21` (stereo not drawn) [Ex-72], the EC50 came out at 6.7 nM.

Take `COc1cccc2c1nc(N)n1nc(CN3CCN(c4nnc(C)s4)CC3C)nc21` (stereo not drawn) [Ex-74]: the EC50 worked out at 31.8 nM.

On to `COc1cccc2c1nc(N)n1nc(CN3CCN(c4nncs4)CC3C)nc21` (stereo not drawn) [Ex-75], for which the EC50 is 47.4 nM.

Regarding `COCc1nc(N2CCN(Cc3nc4c5cccc(OC)c5nc(N)n4n3)C(C)C2)no1` (stereo not drawn) [Ex-79], the EC50 stood at 21.1 nM.

On to `COc1cccc2c1nc(N)n1nc(CN3CCN(c4noc(C(C)C)n4)CC3C)nc21` (stereo not drawn) [Ex-80], for which the EC50 worked out at 19.4 nM. On to `COc1cccc2c1nc(N)n1nc(CN3CCN(c4ncc(C(=O)O)s4)CC3C)nc21` (stereo not drawn) [Ex-81], for which the EC50 came to 68.2 nM. Take `COc1cccc2c1nc(N)n1nc(CN3CCN(c4noc(=O)[nH]4)CC3C)nc21` (stereo not drawn) [Ex-82]: the EC50 was found to be 628 nM.

In the case of `COc1cccc2c1nc(N)n1nc(CN3CCN(c4noc(C(F)(F)F)n4)CC3C)nc21` (stereo not drawn) [Ex-83], the 50% effective concentration (EC50) amounted to 47.6 nM. As for `COc1cccc2c1nc(N)n1nc(CN3CCN(c4nnc(C)[nH]4)CC3C)nc21` (stereo not drawn) [Ex-84], the EC50 came to 57.2 nM.

For the molecule `CCc1nc(N2CCN(Cc3nc4c5cccc(OC)c5nc(N)n4n3)C(C)C2)no1` (stereo not drawn) [Ex-87], the concentration for a half-maximal effect (EC50) is 21.5 nM.

For the molecule `COc1cccc2c1nc(N)n1nc(CN3CCN(c4noc(C(C)(C)C)n4)CC3C)nc21` (stereo not drawn) [Ex-88], the EC50 was 22.2 nM.

For `COc1cccc2c1nc(N)n1nc(CN3CCN(c4ncns4)CC3C)nc21` (stereo not drawn) [Ex-89], the EC50 worked out at 72.2 nM.

Turning to `COc1cccc2c1nc(N)n1nc(CN3CCN(C(=O)c4nc(C5CC5)no4)CC3C)nc21` (stereo not drawn) [Ex-90], the EC50 amounted to 53.5 nM. `COc1cccc2c1nc(N)n1nc(CN3CCN(c4nc(C(C)(C)C)no4)CC3C)nc21` (stereo not drawn) [Ex-91]: the EC50 is 42.2 nM.

With `COc1cccc2c1nc(N)n1nc(CN3CCN(C(C)c4ccc(F)cc4F)CC3C)nc21` (stereo not drawn) [Ex-92], the EC50 came to 5.2 nM.

As usually defined, the EC50 is the concentration at which the effect is half-maximal.
